PMC11435625, “In Vitro Hepatic Clearance Evaluations of Per- and Polyfluoroalkyl Substances (PFAS) across Multiple Structural Categories” (Toxics, 2024)
Where two headings read alike, the source gives them in different places.

Tests used:
[1] = tested on: pooled primary human hepatocyte suspensions; assay: in vitro; settings: for In Vitro Clint: Table 3, 0 = no significant clearance
How it was run: (§1)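 Substrate depletion at 1 μM PFAS in pooled cryopreserved human hepatocytes (~0.5 × 10^6 viable cells/mL, 50-donor pool), 37 °C with shaking, sampled 0–240 min in triplicate. Quantified by LC-MS in negative ion mode against matrix-matched calibration; media-only or heat-inactivated cells as nonmetabolic-loss controls.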

[2] = IVIVE: steady-state concentration (Css), generic HTTK model; parameters: species or system human; settings: for Css (mg/L) / Css (uM): Assuming 1 mg/kg/day dose rate, BW 70 kg; for CLhep: QL 1500000 uL/min; for Fub: fub=fup/(B:P), Fub set to 1 if needed; for CLint: scaled to whole liver: HPGL 110 mill cells/g, Vl 1596 g; for Css: human steady-state concentration, 1 mg/kg/day exposure rate, loss of parent compound only
How it was run: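 Human Css estimated by IVIVE: plasma protein binding converted to blood fraction unbound via blood-to-plasma partitioning, and experimental Clint scaled with liver scalars to whole liver clearance. AEDs then derived by reverse dosimetry from Css and PFAS in vitro POD, defined as fifth-percentile AC50.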

[3] = tested on: pooled primary human hepatocyte suspensions; settings: both, hepatocytes, 1 μM
Text: (§2) Markov Chain Monte Carlo was employed in a Bayesian analysis to estimate uncertainty of the hepatic clearance point measures as previously described, but with some modifications [10]. Briefly, after organizing PFAS-level data into a single file, the relationship between the relevant measurement process parameters was described in a graphic model in JAGS language [13] interfaced through R. For hepatic clearance data, the model describes the PFAS-specific mass spectrometric response factor between analyte peak ratio (to internal standard) and chemical concentration. […] The assumed prior for whether the chemical degraded abiotically in vitro followed a Bernoulli distribution with a 5% chance of abiotic degradation. Separate biotic and abiotic components for chemical elimination were estimated, each with a slope following an assumed uniform prior distribution bounded between the zero and the -log (limit of quantitation/Ctest). In scenarios where an external calibration without internal standard was used, the response factor was calculated using the analyte peak alone, introducing additional uncertainty due to the inability to normalize for recovery issues. The model was analyzed jointly by JAGS using five Markov chains. Convergence was identified by requiring the five chains to be consistent, as indicated by the potential scale reduction factor [14] being less than 1.1. The analysis was performed using EPA-developed R package invitroTKstats, available upon request.

plasma protein = settings: cited from earlier work; for fup (fraction unbound in plasma): human plasma
[4] = Hepatic clearance assay (substrate depletion, LC-MS); settings: both, human
How it was run: as §1

[5] = Administered equivalent dose (AED) by reverse dosimetry; parameters: species or system human; settings: from Css and AC50 POD by reverse dosimetry
Protocol: IVIVE was performed as previously described to calculate human steady-state concentrations (Css). Briefly, experimental plasma protein binding data presented elsewhere were transformed to fraction unbound in blood using blood-to-plasma partitioning values. Experimental Clint values generated here are used in conjunction with relevant liver scalars to scale up to estimate whole liver clearance. […] Once Css values were established, these were used with the PFAS-specific in vitro POD data to calculate the administered equivalent doses (AEDs) using reverse dosimetry. […] The fifth-percentile AC50 value was used to define the in vitro POD. All relevant inputs, scalars, and calculations are provided in Supplementary Information, as indicated in the results.

[6] = tested on: pooled primary human hepatocyte suspensions; assay: Bayesian (MCMC, invitroTKstats) analysis of hepatic clearance data; settings: for metabolic clearance call, experimental and Bayesian analyses in agreement: both analyses agreed; for Clint.1.Med: Level-4 Bayesian estimate, posterior median, Clint.1 series (Clint.10 all NA)
Text: as §2

[7] = parameters: method as in PMID 32648786; settings: human; cited from earlier work
[8] = parameters: method as in PMID 26085347; settings: simulation; cited from earlier work
[9] = parameters: method as in PMID 36851038; settings: dynamic one-compartment model; cited from earlier work
[10] = CLint value carried into HTTK/IVIVE, in µL/min/10^6 cells
[11] = pooled primary human hepatocyte suspensions, in µL/min/10^6 cells
[12] = unadjusted hepatic intrinsic clearance, pooled primary human hepatocyte suspensions, Table S4, in µL/min/10^6 cells
[13] = pooled human hepatocyte suspension, 1 μM

With O=C(O)CCC(F)(C(F)(F)F)C(F)(F)F as the compound, how does the “CLint for HTTK” value ([1]; both, human, hepatocytes, 1 μM) read?
The value was 0.

And the “Unadj Clint” value ([1]; both, human, hepatocytes, 1 μM)?
The value was 0.00.

And the “in vitro CLint exp assay” value ([1]; both, human, hepatocytes, 1 μM)?
The value was 0.

And the “Css (mg/L)” value [2]?
Its value is 2.52 mg/L.

And the “Css (uM)” value [2]?
The value was 10.43 µM.

What about the “CLhep” value [2] of the same compound?
The value was 0.000 L/h.

And the Fub [2]?
Its Fub is 0.1738.

What about the “CLint” value [2] of the same compound?
Its value is 0 µL/min.

What about the Clint.1.Med [3] of the same compound?
The Clint.1.Med was 0.

And the Mean fu (plasma protein; plasma)?
The Mean fu was 0.0956.

For O=C(O)C=CC(F)(C(F)(F)F)C(F)(F)F [3-(Perfluoroisopropyl)-2-propenoic acid], which “CLint for HTTK” value [1, 10] is on record?
Its value is 0.

What about the “in vitro CLint exp assay” value [1, 11] of the same compound?
The value was 0.

What about the “Unadj Clint” value [1, 12] of the same compound?
Its value is 1.23.

And the “Css (mg/L)” value [2]?
Its value is 2.41 mg/L.

And the “Css (uM)” value [2]?
The value was 10.03 µM.

What about the “CLhep” value [2] of the same compound?
The value was 0.000 L/h.

What about the Fub [2] of the same compound?
Its Fub is 0.1824.

And the “CLint” value [2]?
The value was 0 µL/min.

And the Clint.1.Med [3]?
Its Clint.1.Med is 0.

What about the Mean fu (plasma protein; fraction unbound in plasma, input for IVIVE calculations) of the same compound?
Its Mean fu is 0.1003.

With O=S(=O)(O)CCC(F)(F)C(F)(F)C(F)(F)C(F)(F)F [4:2 FTS, 4:2 Fluorotelomer sulfonic acid] as the compound, how does the hepatocyte CLint at 1 μM ([4]; hepatocytes) read?
Its hepatocyte CLint at 1 μM is 4.28 µL/min/1e6 cells.

What about the “In Vitro Clint” value [1, 13] of the same compound?
Its value is 4.28 μL/min/million cells.

And the “Unadj Clint” value [1, 12]?
Its value is 4.28.

And the Css [2]?
Its Css is 19.12 µM.

What about the “fup (fraction unbound in plasma)” value (plasma protein) of the same compound?
Its value is 0.0050.

What does the source list for O=C(O)CCC(F)(F)C(F)(F)C(F)(F)C(F)(F)C(F)(F)F [5:3 FTCA, 2H,2H,3H,3H-Perfluorooctanoic acid]?
hepatocyte CLint at 1 μM ([4]; hepatocytes): 11.8 µL/min/1e6 cells; In Vitro Clint [1, 13]: 11.84 μL/min/million cells; Unadj Clint [1, 12]: 11.84; Css [2]: 6.18 µM; AED [5]: 0.99 mg/kg/day; fup (fraction unbound in plasma) (plasma protein): 0.0059; metabolic clearance call, experimental and Bayesian analyses in agreement [6]: metabolized

Which results are given for O=S(=O)(O)CCC(F)(F)C(F)(F)C(F)(F)C(F)(F)C(F)(F)C(F)(F)F [6:2 FTS, 6:2 Fluorotelomer sulfonic acid]?
hepatocyte CLint at 1 μM ([4]; hepatocytes): 1.4 µL/min/1e6 cells; In Vitro Clint [1, 13]: 1.4 μL/min/million cells; Unadj Clint [1, 12]: 1.40; Css [2]: 12.36 µM; AED [5]: 0.89 mg/kg/day; fup (fraction unbound in plasma) (plasma protein): 0.0143

With O=C(O)CCC(F)(F)C(F)(F)C(F)(F)C(F)(F)C(F)(F)C(F)(F)F [6:3 FTCA, 6:3 Fluorotelomer carboxylic acid] as the compound, how does the “CLint for HTTK” value [1, 10] read?
Its value is 5.05.

And the CLint ([1]; Table 2, pooled human hepatocyte suspension, 1 μM, 0-240 min, 0 = slope not significant (p>0.05))?
The CLint was 5.05 μL/min/million cells.

And the “In Vitro Clint” value [1, 13]?
The value was 5.05 μL/min/million cells.

And the “in vitro CLint exp assay” value [1, 11]?
The value was 5.05.

And the “Css (mg/L)” value [2]?
Its value is 11.76 mg/L.

What about the “Css (uM)” value [2] of the same compound?
Its value is 30.01 µM.

What about the “CLhep” value [2] of the same compound?
The value was 0.222 L/h.

What about the Fub [2] of the same compound?
Its Fub is 0.004182.

And the Css [2]?
The Css was 30.01 µM.

And the “CLint” value [2]?
Its value is 886578 µL/min.

What about the AED [5] of the same compound?
Its AED is 0.18 mg/kg/day.

What about the “fup (fraction unbound in plasma)” value (plasma protein) of the same compound?
The value was 0.0023.

What about the Clint.1.Med [6] of the same compound?
Its Clint.1.Med is 0.

Which results are given for O=C(O)CCC(F)(F)C(F)(F)C(F)(F)C(F)(F)C(F)(F)C(F)(F)C(F)(F)F [7:3 FTCA, 3-Perfluoroheptylpropanoic acid]?
hepatocyte CLint at 1 μM ([4]; hepatocytes): 15.7 µL/min/1e6 cells; CLint for HTTK [1, 10]: 13.21; In Vitro Clint [1, 13]: 15.7 μL/min/million cells; in vitro CLint exp assay [1, 11]: 13.21; Unadj Clint [1, 12]: 19.74; Css (mg/L) [2]: 2.20 mg/L; Css (uM) [2]: 4.99 µM; CLhep [2]: 1.272 L/h; Fub [2]: 0.009273; Css [2]: 4.99 µM; CLint [2]: 2319148 µL/min; AED [5]: 0.19 mg/kg/day; fup (fraction unbound in plasma) (plasma protein): 0.0051; Clint.1.Med [6]: 15.6; metabolic clearance call, experimental and Bayesian analyses in agreement [6]: metabolized

Which hepatocyte CLint at 1 μM ([4]; cryopreserved pooled primary human hepatocyte suspensions) does the source give for O=S(=O)(O)CCC(F)(F)C(F)(F)C(F)(F)C(F)(F)C(F)(F)C(F)(F)C(F)(F)C(F)(F)F [8:2 FTS, 8:2 Fluorotelomer sulfonic acid] here?
The hepatocyte CLint at 1 μM was 1.53 µL/min/1e6 cells.

And the “Unadj Clint” value [1, 12]?
The value was 1.53.

Which results are given for O=C(O)C(F)(F)C(F)(F)C(F)(F)C(F)(F)C(F)(F)C(F)(F)C(F)F [8H-PFOA, 8H-Perfluorooctanoic acid]?
Unadj Clint [1, 12]: 0.00; Css [2]: 290.23 µM; AED [5]: 0.04 mg/kg/day; fup (fraction unbound in plasma) (plasma protein): 0.0021; Clint.1.Med [6]: 0

With CCNS(=O)(=O)C(F)(F)C(F)(F)C(F)(F)C(F)(F)C(F)(F)C(F)(F)C(F)(F)C(F)(F)F [NEtFOSA, N-Ethylperfluorooctanesulfonamide] as the compound, how does the hepatocyte CLint at 1 μM ([4]; hepatocytes) read?
The hepatocyte CLint at 1 μM was > 15 µL/min/1e6 cells.

What about the “Unadj Clint” value ([1]; both, human, hepatocytes, 1 μM) of the same compound?
Its value is 24.92.

What about the Clint.1.Med [3] of the same compound?
Its Clint.1.Med is 164.

Which results are given for O=S(=O)(O)C(F)(F)C(F)(F)C(F)(F)C(F)(F)F [PFBS, Perfluorobutanesulfonic acid]?
hepatocyte CLint at 1 μM ([4]; hepatocytes): 4.75 µL/min/1e6 cells; In Vitro Clint [1, 13]: 4.75 μL/min/million cells; Unadj Clint [1, 12]: 4.75; Css [2]: 7.51 µM; AED [5]: 0.83 mg/kg/day; estimated half life [7]: as low as one month; fup (fraction unbound in plasma) (plasma protein): 0.0128

Which results are given for O=C(O)C(F)(F)C(F)(F)C(F)(F)C(F)(F)C(F)(F)C(F)(F)C(F)(F)F [PFOA, Perfluorooctanoic acid]?
Unadj Clint ([1]; unadjusted hepatic intrinsic clearance, pooled primary human hepatocyte suspensions, Table S4, listed as Perfluorooctanoic acid, in µL/min/10^6 cells): 1.49; Css [2]: 582.99 µM; AED [5]: 0.01 mg/kg/day; time to reach steady state [8]: 3.5 years; fup (fraction unbound in plasma) (plasma protein): 0.0010

With O=S(=O)(O)C(F)(F)C(F)(F)C(F)(F)C(F)(F)C(F)(F)C(F)(F)C(F)(F)C(F)(F)F [PFOS, Perfluorooctanesulfonic acid] as the compound, how does the “Unadj Clint” value ([1]; unadjusted hepatic intrinsic clearance, pooled primary human hepatocyte suspensions, Table S4, listed as Perfluorooctanesulfonic acid, in µL/min/10^6 cells) read?
The value was 1.38.

And the Css [2]?
Its Css is 98.52 µM.

What about the AED [5] of the same compound?
The AED was 0.08 mg/kg/day.

What about the “time to reach steady state” value [8] of the same compound?
Its value is 6.6 years.

And the “time to reach steady-state values” [9]?
Its value is 30 years.

What about the “fup (fraction unbound in plasma)” value (plasma protein) of the same compound?
Its value is 0.0049.

For NS(=O)(=O)C(F)(F)C(F)(F)C(F)(F)C(F)(F)C(F)(F)C(F)(F)C(F)(F)C(F)(F)F [PFOSA, Perfluorooctanesulfonamide], which hepatocyte CLint at 1 μM ([4]; hepatocytes) is on record?
Its hepatocyte CLint at 1 μM is > 15 µL/min/1e6 cells.

And the “Unadj Clint” value ([1]; both, human, hepatocytes, 1 μM)?
Its value is 22.84.

What about the Clint.1.Med [3] of the same compound?
The Clint.1.Med was 0.

Which results are given for O=C(O)C(F)(F)C(F)(F)C(F)(F)OC(F)(C(F)(F)F)C(F)(F)F [PFPE-1, Perfluoro-4-isopropoxybutanoic acid]?
hepatocyte CLint at 1 μM ([4]; hepatocytes): 5.78 µL/min/1e6 cells; Unadj Clint [1, 12]: 5.78
